Reference: patent publication US20100021941A1, “METHODS OF IDENTIFYING MODULATORS OF UBIQUITIN LIGASES” (PROGENRA, INCORPORATED, priority 2008, published 2010)

Tests used:
[1] = target: T1, E1, E2 and E3 coupled enzyme reaction (GST-E1/His6-UbcH5c/6× His-SUMO-CARP2 ligase) (Homo sapiens, UniProt P22314+P61077+Q8WZ73); assay: E3 ligase assay (autoubiquitylation) on 6× His-SUMO-UBA2 coated plates, anti-ubiquitin antibody/FITC fluorescence detection; type: biochemical; settings: enzymes pre-incubated with compound 30 minutes at room temperature; reaction 60 minutes at 37° C.; 500 nM 6× His SUMO-CARP2; triplicate; FIG. 6A
T1 construct: fused on or other part: GST on E1; His6 on UbcH5c; 6x His-SUMO on CARP2; The plate is coated with 6x His-SUMO-UBA2 (yeast Rad23 residues 351-398) as capture reagent
T1 sequence (P22314 2-1058): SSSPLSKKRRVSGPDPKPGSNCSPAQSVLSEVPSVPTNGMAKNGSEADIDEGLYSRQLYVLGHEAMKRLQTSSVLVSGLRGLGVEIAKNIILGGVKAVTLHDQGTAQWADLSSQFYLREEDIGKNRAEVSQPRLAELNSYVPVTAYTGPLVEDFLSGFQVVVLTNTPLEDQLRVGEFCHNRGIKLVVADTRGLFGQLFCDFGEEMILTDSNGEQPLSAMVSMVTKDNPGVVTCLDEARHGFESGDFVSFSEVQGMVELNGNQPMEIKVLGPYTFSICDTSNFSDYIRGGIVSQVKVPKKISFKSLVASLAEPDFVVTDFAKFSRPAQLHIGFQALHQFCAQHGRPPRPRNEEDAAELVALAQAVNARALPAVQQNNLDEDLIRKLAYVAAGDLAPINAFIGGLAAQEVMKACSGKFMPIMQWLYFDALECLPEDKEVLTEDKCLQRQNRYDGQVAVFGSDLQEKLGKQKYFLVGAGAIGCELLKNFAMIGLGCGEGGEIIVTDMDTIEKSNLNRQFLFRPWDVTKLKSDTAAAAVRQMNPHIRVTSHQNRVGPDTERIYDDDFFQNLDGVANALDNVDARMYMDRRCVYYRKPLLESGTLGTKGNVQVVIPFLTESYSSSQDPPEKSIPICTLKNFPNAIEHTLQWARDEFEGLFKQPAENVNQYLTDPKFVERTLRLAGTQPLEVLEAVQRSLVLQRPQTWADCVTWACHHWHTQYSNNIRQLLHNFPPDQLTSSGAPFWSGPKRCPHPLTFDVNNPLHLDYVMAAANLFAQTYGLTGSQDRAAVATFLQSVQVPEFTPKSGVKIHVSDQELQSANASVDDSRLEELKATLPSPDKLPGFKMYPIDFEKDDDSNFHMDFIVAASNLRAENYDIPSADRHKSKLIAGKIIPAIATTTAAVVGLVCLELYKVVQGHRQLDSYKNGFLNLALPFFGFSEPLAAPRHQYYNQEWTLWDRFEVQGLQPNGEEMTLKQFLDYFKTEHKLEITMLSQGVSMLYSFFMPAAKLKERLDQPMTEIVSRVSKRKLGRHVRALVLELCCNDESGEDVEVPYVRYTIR
T1 sequence (P61077 whole entry, the tested form may be a part): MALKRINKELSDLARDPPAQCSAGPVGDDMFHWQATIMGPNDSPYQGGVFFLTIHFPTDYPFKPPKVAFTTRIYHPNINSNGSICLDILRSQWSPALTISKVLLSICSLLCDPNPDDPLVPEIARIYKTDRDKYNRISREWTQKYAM
T1 sequence (Q8WZ73 whole entry, the tested form may be a part): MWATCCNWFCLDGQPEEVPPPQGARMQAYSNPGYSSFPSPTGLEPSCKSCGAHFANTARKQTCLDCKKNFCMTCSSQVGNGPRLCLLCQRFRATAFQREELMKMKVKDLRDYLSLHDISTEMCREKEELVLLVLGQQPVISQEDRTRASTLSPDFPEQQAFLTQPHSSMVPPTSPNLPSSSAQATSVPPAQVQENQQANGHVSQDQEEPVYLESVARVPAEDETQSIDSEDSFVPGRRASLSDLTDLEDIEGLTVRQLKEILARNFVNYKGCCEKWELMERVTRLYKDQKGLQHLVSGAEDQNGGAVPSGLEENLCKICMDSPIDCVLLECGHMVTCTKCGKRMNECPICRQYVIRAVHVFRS
Experimental: Medium binding plates (Costar, USA) were coated with 100 μl of 0.1 mg/ml solution of 6× His-SUMO-UBA2 overnight at 4° C. The plates were blocked with 200 μl of 3% BSA in 1× phosphate buffered saline (1× PBS, pH 7.4) for 3 hours at 4° C. and washed with 1× PBS three times. E3 reactions were carried out as follows. For IC50 experiments, various concentrations of NEM, iodoacetamide, and ubistatin A were added to individual wells in triplicate. Controls contained 5 μl of 10% DMSO or 50 mM NEM. The compounds were supplemented with 20 μl of enzyme mixture containing GST-E1 (10 nM)/His6-UbcH5c (100 nM), 6× His SUMO-CARP2 (500 nM) prepared in assay buffer (50 mM Tris-HCl, pH8.0, 2 mM MgCl2, 0.1 mM DTT) and incubated at room temperature for 30 minutes. A pFastBac-GST-E1 vector was expressed and purified from insect cells according to published methods. Beaudenon and Huibregtse, Methods Enzymol, 398: 3-8 9 (2005). A PCR product encoding UbcH5c was generated using the primers 5′-[…]-3′ (SEQ ID NO:24) and 5′-[…]-3′ (SEQ ID NO:25) and human UbcH5c cDNA as the template. The PCR fragment was digested with BsaI and BamHI, and then ligated into pET24D (Novagen) generating 6× His-UbcH5c. […] Plates were washed six times with 1× PBS and readings were taken using the fluorescence plate reader with excitation and emission wavelengths of 485 nm and 535 nm, respectively.

[2] = test system: E3 ubiquitylation reaction containing E1, E2 (UbcH5c) and E3; assay: E3 ligase inhibition assay using 5′-IAF-UBA1 detection and anti-ubiquitin immunoblot; type: biochemical, human; settings: pre-incubated with various concentrations for 30 minutes at room temperature before adding ubiquitin and ATP; FIGS. 9A-D
Experimental: E3 ligase reactions contained 10 nM GST-Praja1, 500 nM 6× His-SUMO-CARP2 or 500 nM 6× His-SUMO-MuRF1 as E3s, 50 nM E1, 150 nM UbcH5c (E2), 500 ng Ubiquitin, 2 mM ATP, 50 mM Tris-HCl pH8.0, 5 mM MgCl2, 0.1 mM DTT. For measuring SCF^Atrogin-1 E3 ligase activity, the reaction was assembled essentially as described above except that the E3 ligase contained 6× His-SUMO-Atrogin-1, Cullin-1 (“Cul1”), Roc-1 (“Rbx-1 ”) and 6× His-Skp1 (250 nM each). In order to obtain large amounts of the Cul1-Rbx1 complex for the SCF complex, we used a procedure to overexpress the Cul1-Rbx1 complex in E. coli. Zheng, et al., Nature, 416(6882):703-9 (2002). The Cull gene was split into two halves (residues 1-410 and residues 411-776) and co-expressed with GST-tagged Rbx1 as three different polypeptide chains. A PCR product encoding Skp1 was generated using the primers 5′-[…]-3′ (SEQ ID NO:28) and 5′-[…]-3′ (SEQ ID NO:29) and human Skp1 cDNA as the template. […]
For inhibition assays, reactions containing E1, E2, and E3 were pre-incubated with various concentrations of NEM and ubistatin A for 30 minutes at room temperature before initiating the reaction by adding ubiquitin and ATP. […] The wells were washed with 1× PBS and readings were taken using a fluorescence plate reader with excitation and emission wavelengths of 485 nm and 535nm, respectively. […]

Compound | IC50 [1] [µM] | inhibition of the E3 ubiquitylation assay [2]
CCN1C(=O)C=CC1=O [NEM] | 34.2 | inhibited
O=C(Nc1ccc(/C=C/c2ccc(NC(=O)c3cc(S(=O)(=O)O)c4cccnc4c3O)cc2S(=O)(=O)O)c(S(=O)(=O)O)c1)c1cc(S(=O)(=O)O)c2cccnc2c1O [ubistatinA] | 0.421 | inhibited
